# Results: patent publication US20080207532A1, “Use of Nordihydroguaiaretic Acid Derivatives in the Treatment of Drug Resistant Cancer, Viral and Microbial Infection” (Johns Hopkins University, priority 2004, published 2008)
# How the values were obtained:
# [1] = clinical trials to date; cited from earlier work
# [2] = test system: MDR1 mRNA and Pgp; assay: Dox induction of MDR1 gene expression in MCF-7 cells; assay type: cell-based, human; settings: MCF-7, 0.05 μM Dox with 5.0 μM M4N, two days
# Method: Total RNA was isolated using the Trizol Reagent (Invitrogen, Carlsbad, Calif.). RT-PCR was carried out with the Superscript II One-Step RT-PCR system with Platinum Taq DNA Polymerase (Invitrogen) according to the manufacturer's protocol using oligonucleotide primers specific for MDR1: […]
# Cultured cells were incubated in a solution of 10 mM EDTA and 10 mM EGTA in PBS and then harvested by scraping with a Teflon® cell scraper. The cells were pelleted and lysed in modified RIPA buffer [50 mM Tris-HCl (pH 7.4), 1% NP-40, 0.25% Na-deoxycholate, 150 mM NaCl, 1 mM EDTA (pH 8.0)] containing Protease Inhibitor Cocktail (Sigma Chemical Co.). The lysate was cleared by centrifligation and protein concentrations were determined with the Bio-Rad Protein Assay (Bio-Rad Laboratories, Hercules, Calif.). Protein samples were separated by SDS-PAGE and electroblofted to a Hybond enhanced chemiluminescence (ECL) nitrocellulose membrane (Amersham) with a semidry blotting apparatus and detected as described in the instruction manual of the ECL Western Blotting System (Amersham). The antibodies used were primary rabbit polyclonal antibodies against Pgp and cyclin B and a horseradish […] conjugated secondary antibody (Santa Cruz Biotechnology). Relative band intensities were measured with ImageJ software. […]
# [3] = mouse, IP, IV and oral; cited from earlier work
# [4] = solubility in water; assay type: physicochemical
# [5] = test system: MCF-7; settings: MCF-7; read-out: IC50 from previous studies; cited from earlier work
# [6] = test system: MCF-7 cells; assay: MTT cell proliferation assay, MCF-7 cells in culture; assay type: cell-based, human; settings: 72 hours
# Method: (§1) MCF-7 cells (a human mammary carcinoma cell line, obtainable from the ATCC P.O. Box 1549, Manassas, Va. 20108) were seeded into 24-well plates at 1.5×10^4 cells/well in 500 μl of Dulbecco's modified Eagle's medium (DMEM) containing 10% fetal bovine serum (FBS) and the antibiotics penicillin and streptomycin. Varying concentrations of M4N were added the next day. After incubation for an additional 3 days, cell proliferation was assessed by the MTT assay. […] The mice were assigned to a treatment group that received M4N dissolved in a 6% Cremaphor EL, 6% ethanol and 88% saline, and to a control group that received the vehicle only. […] Mice received a single daily 100 μL intraperitoneal (i.p.) injection containing 2 mg of M4N for 3 weeks. The control mice received an equal volume of the vehicle. […] The results from the individual mice were combined and the average tumor volume was determined. Statistical significance of the mean differences in tumor volume was assessed by Student's t-test.
# [7] = test system: MCF-7 xenografts; assay: MCF-7 xenografts in nude mice, M4N i.p. or oral; assay type: in vivo; settings: 21 days systemic treatment, IP injection daily or oral feeding in food balls
# Method: as §1
smiles,measurement,setting,value
"COc1ccc(C[C@@H](C)[C@@H](C)Cc2ccc(OC)c(OC)c2)cc1OC [M4N, tetra-o-methyl nordihydroguaiaretic acid]","systemic side effects (gastrointestinal problems, anemia, hair loss)",[1],has not caused the systemic side effects
same,induction of MDR1 expression by Dox,[2],abolished
same,level of drug in the blood,[3],extremely low and only presents transiently
same,solubility in aqueous solution,[4],limited solubility
same,IC50,[5],~7 µM
same,M4N required to achieve a total cell arrest,[6],20 µM
same,tumor sizes of xenografts,[7],greatly reduced the tumor sizes
